Molecules are shown by their SMILES.

Drawing on patent US10233173B2, “Substituted 1,2,3-triazoles as NR2B-selective NMDA modulators” (JANSSEN PHARMACEUTICA NV, priority 2016, dated 2019), this text covers IC50 for 15 compounds.

Sequence of human GluN1/GluN2B NMDA receptors (Q13224 27-1484, other chains not shown): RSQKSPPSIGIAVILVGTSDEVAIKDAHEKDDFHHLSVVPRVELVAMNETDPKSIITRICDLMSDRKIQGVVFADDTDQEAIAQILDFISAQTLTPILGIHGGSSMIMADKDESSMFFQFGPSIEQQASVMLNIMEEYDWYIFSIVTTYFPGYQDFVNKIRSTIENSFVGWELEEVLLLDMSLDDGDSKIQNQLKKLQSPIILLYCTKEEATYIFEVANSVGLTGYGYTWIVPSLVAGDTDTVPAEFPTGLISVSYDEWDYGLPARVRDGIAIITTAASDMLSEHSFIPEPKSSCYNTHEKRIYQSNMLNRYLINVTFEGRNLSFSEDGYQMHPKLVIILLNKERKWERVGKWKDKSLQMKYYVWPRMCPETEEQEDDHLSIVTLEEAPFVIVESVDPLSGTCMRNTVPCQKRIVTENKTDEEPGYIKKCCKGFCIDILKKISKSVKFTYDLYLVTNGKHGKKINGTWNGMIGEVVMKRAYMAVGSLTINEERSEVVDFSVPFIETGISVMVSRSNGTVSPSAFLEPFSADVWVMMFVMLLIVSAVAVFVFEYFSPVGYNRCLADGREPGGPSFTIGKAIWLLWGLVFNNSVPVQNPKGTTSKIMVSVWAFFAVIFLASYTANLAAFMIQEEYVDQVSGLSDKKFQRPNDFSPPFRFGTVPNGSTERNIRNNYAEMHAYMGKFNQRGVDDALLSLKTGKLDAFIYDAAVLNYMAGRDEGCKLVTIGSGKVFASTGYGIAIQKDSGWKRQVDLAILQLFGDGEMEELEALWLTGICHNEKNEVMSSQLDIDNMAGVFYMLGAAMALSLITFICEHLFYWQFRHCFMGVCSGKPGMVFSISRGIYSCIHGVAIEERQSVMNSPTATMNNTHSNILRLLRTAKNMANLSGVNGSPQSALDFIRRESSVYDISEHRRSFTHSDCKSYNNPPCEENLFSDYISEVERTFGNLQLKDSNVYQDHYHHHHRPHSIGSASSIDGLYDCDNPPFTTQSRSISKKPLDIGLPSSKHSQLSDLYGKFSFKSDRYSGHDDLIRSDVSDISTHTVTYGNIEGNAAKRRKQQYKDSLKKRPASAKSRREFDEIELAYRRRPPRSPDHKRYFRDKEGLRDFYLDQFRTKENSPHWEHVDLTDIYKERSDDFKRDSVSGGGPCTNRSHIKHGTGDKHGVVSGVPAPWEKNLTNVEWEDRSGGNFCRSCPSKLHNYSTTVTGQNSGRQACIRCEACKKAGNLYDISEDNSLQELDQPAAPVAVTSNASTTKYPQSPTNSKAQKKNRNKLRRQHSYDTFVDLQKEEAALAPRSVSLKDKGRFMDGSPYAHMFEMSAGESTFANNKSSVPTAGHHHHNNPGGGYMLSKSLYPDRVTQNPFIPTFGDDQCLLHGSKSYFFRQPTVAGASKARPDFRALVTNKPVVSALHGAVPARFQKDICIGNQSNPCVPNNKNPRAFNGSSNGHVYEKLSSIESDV

The assay concerns the target human GluN1/GluN2B NMDA receptors (Homo sapiens, UniProt Q05586+Q13224). Put plainly: Cell-based calcium flux (FLIPR) assay on cloned human NR1/NR2B ion channels expressed in mammalian cells. The following applies: standard assay; glutamate at ~EC80; FLIPR calcium flux. The essentials:
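Calcium influx followed by FLIPR fluorescence after 5 min compound exposure and a further 5 min co-agonist challenge: 10 μM glycine with glutamate at ~EC80 (standard) or EC40 (HTS).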
As for `Fc1ccc(-n2cc(COc3nccc(-c4ccco4)n3)nn2)cc1C(F)F` [Example 424, 2-[[1-[3-(Difluoromethyl)-4-fluoro-phenyl]triazol-4-yl]methoxy]-4-(2-furyl)pyrimidine], the IC50 (as a rule, the concentration at which inhibition is half-maximal) amounted to 0.141 µM. For `Cc1cnc(OCc2nnn(-c3ccc(F)c(C(F)F)c3)c2I)nc1` [Example 425, 2-[[1-[3-(Difluoromethyl)-4-fluoro-phenyl]-5-iodo-triazol-4-yl]methoxy]-5-methyl-pyrimidine], the IC50 was determined as 0.394 µM. For the compound `Fc1ccc(-n2cc(COc3ncccc3F)nn2)cc1C(F)(F)F` [Example 427, 3-Fluoro-2-[[1-[4-fluoro-3-(trifluoromethyl)phenyl]triazol-4-yl]methoxy]pyridine], the IC50 amounted to 0.897 µM. The same measure for `Fc1ccc(-n2cc(COc3ccc(Cl)cn3)nn2)cc1C(F)(F)F` [Example 428, 5-Chloro-2-[[1-[4-fluoro-3-(trifluoromethyl)phenyl]triazol-4-yl]methoxy]pyridine]: 0.796 µM. In the case of `Cc1ccnc(OCc2cn(-c3ccc(F)c(C(F)(F)F)c3)nn2)c1` [Example 429, 2-[[1-[4-Fluoro-3-(trifluoromethyl)phenyl]triazol-4-yl]methoxy]-4-methyl-pyridine] it was 0.665 µM; in that of `Cc1cccc(OCc2cn(-c3ccc(F)c(C(F)(F)F)c3)nn2)n1` [Example 430, 2-[[1-[4-Fluoro-3-(trifluoromethyl)phenyl]triazol-4-yl]methoxy]-6-methyl-pyridine], 0.11 µM.

On to `Cc1ccc(OCc2cn(-c3ccc(F)c(C(F)(F)F)c3)nn2)nc1` [Example 431, 2-[[1-[4-Fluoro-3-(trifluoromethyl)phenyl]triazol-4-yl]methoxy]-5-methyl-pyridine], for which the IC50 was 0.101 µM. For `Fc1ccc(-n2cc(COc3ccc(C(F)(F)F)cn3)nn2)cc1C(F)(F)F` [Example 432, 2-[[1-[4-Fluoro-3-(trifluoromethyl)phenyl]triazol-4-yl]methoxy]-5-(trifluoromethyl)pyridine], the IC50 came to 0.528 µM. The same measure for `CC(C)(O)c1ccc(OCc2cn(-c3ccc(F)c(C(F)(F)F)c3)nn2)nc1` [Example 433, 2-[6-[[1-[4-Fluoro-3-(trifluoromethyl)phenyl]triazol-4-yl]methoxy]-3-pyridyl]propan-2-ol]: 1.11 µM; for `Fc1ccc(-n2cc(COc3cnccn3)nn2)cc1C(F)(F)F` [Example 434, 2-[[1-[4-Fluoro-3-(trifluoromethyl)phenyl]triazol-4-yl]methoxy]pyrazine]: 6.39 µM. In the case of `CC(C)(O)c1cnc(OCc2cn(-c3ccc(F)c(C(F)(F)F)c3)nn2)nc1` [Example 435, 2-[2-[[1-[4-Fluoro-3-(trifluoromethyl)phenyl]triazol-4-yl]methoxy]pyrimidin-5-yl]propan-2-ol], the IC50 worked out at 0.098 µM. Consider `COC(C)(C)c1cnc(OCc2cn(-c3ccc(F)c(C(F)(F)F)c3)nn2)nc1` [Example 436, 2-[[1-[4-Fluoro-3-(trifluoromethyl)phenyl]triazol-4-yl]methoxy]-5-(1-methoxy-1-methyl-ethyl)pyrimidine], for which the 50% inhibitory concentration (IC50) was 3.26 µM. The same measure for `COCc1cnc(OCc2cn(-c3ccc(F)c(C(F)(F)F)c3)nn2)nc1` [Example 437, 2-[[1-[4-Fluoro-3-(trifluoromethyl)phenyl]triazol-4-yl]methoxy]-5-(methoxymethyl)pyrimidine]: 0.071 µM; for `COCc1ccnc(OCc2cn(-c3ccc(F)c(C(F)(F)F)c3)nn2)n1` [Example 438, 2-[[1-[4-Fluoro-3-(trifluoromethyl)phenyl]triazol-4-yl]methoxy]-4-(methoxymethyl)pyrimidine]: 0.094 µM. As for `Fc1ccc(-n2cc(COc3ncc(C(F)F)cn3)nn2)cc1C(F)(F)F` [Example 439, 5-(Difluoromethyl)-2-[[1-[4-fluoro-3-(trifluoromethyl)phenyl]triazol-4-yl]methoxy]pyrimidine], the IC50 came out at 0.013 µM.
